Experimental findings from ChEMBL document CHEMBL2146453, “Synthesis of novel ursolic acid heterocyclic derivatives with improved abilities of antiproliferation and induction of p53, p21waf1 and NOXA in pancreatic cancer cells” (Bioorg Med Chem, 2012) are described below.

One may read the IC50 as the midpoint of a concentration-inhibition curve. A lower IC50 goes with inhibition by little substance.

The structures appear in SMILES notation.

Type in all cases: functional, cell-based
The subject of assay [1] is ASPC1. The assay can be described thus: Cytotoxicity against human AsPC1 cells after 72 hrs by MTT assay. Conditions: ASPC1, 72 h. A general note: Tetrazolium assays rely on reduction of a dye to a coloured formazan, in cell work by metabolically active cells.
The test system of assay [2] is MCF7. The assay is described as follows: Cytotoxicity against human MCF7 cells after 72 hrs by MTT assay. The conditions noted are these: MCF7, 72 h.
The test system of assay [3] is MIA PaCa-2. The assay is described as follows: Cytotoxicity against human MIAPaCa2 cells after 72 hrs by MTT assay. Conditions: MIA PaCa-2, 72 h.
The subject of assay [4] is PANC-1. The assay can be described thus: Cytotoxicity against human PANC1 cells after 72 hrs by MTT assay. Conditions: PANC-1, 72 h.
In assay [5] the test system is A549. The assay is described as follows: Cytotoxicity against human A549 cells after 72 hrs by MTT assay. The conditions noted are these: A549, 72 h.
Assay [6] has as its system PC-3. The assay can be described thus: Cytotoxicity against human PC3 cells after 72 hrs by MTT assay. Conditions: PC-3, 72 h.
Assay [7] deals with HepG2. The assay is described as follows: Cytotoxicity against human HepG2 cells after 72 hrs by MTT assay. Conditions: HepG2, 72 h.

As for `C[C@H]1[C@H](C)CC[C@]2(C(=O)n3ccnc3)CC[C@]3(C)C(=CC[C@@H]4[C@@]5(C)C/C(=C/n6ccnc6)C(=O)C(C)(C)[C@@H]5CC[C@]43C)[C@H]12`, the IC50 in assay [1] is 5.1 µM.
Take `COC(=O)[C@]12CC[C@@H](C)[C@H](C)[C@H]1C1=CC(=O)[C@@H]3[C@@]4(C)C/C(=C/O)C(=O)C(C)(C)[C@@H]4CC[C@@]3(C)[C@]1(C)CC2`: the IC50 in assay [1] was determined as 9 µM.
With `COC(=O)[C@]12CC[C@@H](C)[C@H](C)[C@H]1C1=CC(=O)[C@@H]3[C@@]4(C)C/C(=C/n5cnnc5)C(=O)C(C)(C)[C@@H]4CC[C@@]3(C)[C@]1(C)CC2`, the IC50 amounted to 8.1 µM in assay [1]; 12.5 µM in assay [2]; 7.8 µM in assay [3]; 12.1 µM in assay [4]; 12.9 µM in assay [5]; 9.5 µM in assay [6]. Moreover, the IC50 in assay [7] came to 7.9 µM.
In the case of `C[C@H]1[C@H](C)CC[C@]2(C(=O)n3cnnc3)CC[C@]3(C)C(=CC[C@@H]4[C@@]5(C)C/C(=C/n6cnnc6)C(=O)C(C)(C)[C@@H]5CC[C@]43C)[C@H]12`, the IC50 in assay [1] is 3.9 µM.
Still for that read-out and setting: with `COC(=O)[C@]12CC[C@@H](C)[C@H](C)[C@H]1C1=CC[C@@H]3[C@@]4(C)CC[C@H](O)C(C)(C)[C@@H]4CC[C@@]3(C)[C@]1(C)CC2` [METHYL URSOLATE] the figure was 17.7 µM; with `C[C@H]1[C@H](C)CC[C@]2(C(=O)O)CC[C@]3(C)C(=CC[C@@H]4[C@@]5(C)C/C(=C/O)C(=O)C(C)(C)[C@@H]5CC[C@]43C)[C@H]12`, 13.4 µM; with `C[C@H]1[C@H](C)CC[C@]2(C(=O)n3cnnc3)CC[C@]3(C)C(=CC(=O)[C@@H]4[C@@]5(C)CCC(=O)C(C)(C)[C@@H]5CC[C@]43C)[C@H]12`, 9.9 µM.
Same read-out and setting: with `Cc1nccn1C(=O)[C@]12CC[C@@H](C)[C@H](C)[C@H]1C1=CC[C@@H]3[C@@]4(C)CCC(=O)C(C)(C)[C@@H]4CC[C@@]3(C)[C@]1(C)CC2` the figure was 19.6 µM.
Take `COC(=O)[C@]12CC[C@@H](C)[C@H](C)[C@H]1C1=CC[C@@H]3[C@@]4(C)C/C(=C/n5ccnc5C)C(=O)C(C)(C)[C@@H]4CC[C@@]3(C)[C@]1(C)CC2`: the IC50 came out at 2.1 µM in assay [1]; 2.2 µM in assay [2]; 5.6 µM in assay [3]; 5.6 µM in assay [4]; 5.3 µM in assay [5]; 3.5 µM in assay [6]. The half-maximal inhibitory concentration (IC50) in assay [7] stood at 4 µM.
On to `CC(=O)O[C@H]1CC[C@]2(C)[C@H]3C(=O)C=C4[C@@H]5[C@@H](C)[C@H](C)CC[C@]5(C(=O)n5cnnc5)CC[C@@]4(C)[C@]3(C)CC[C@H]2C1(C)C`, for which the IC50 in assay [1] is 10.2 µM.
In turn, `Cc1nccn1C(=O)[C@]12CC[C@@H](C)[C@H](C)[C@H]1C1=CC(=O)[C@@H]3[C@@]4(C)CCC(=O)C(C)(C)[C@@H]4CC[C@@]3(C)[C@]1(C)CC2` came in with an IC50 in assay [1] of 5.1 µM.
On the same count and under the same terms, in the case of `CC(=O)O[C@H]1CC[C@]2(C)[C@H]3CC=C4[C@@H]5[C@@H](C)[C@H](C)CC[C@]5(C(=O)O)CC[C@@]4(C)[C@]3(C)CC[C@H]2C1(C)C` [O-ACETYLURSOLIC ACID] it was 71 µM; in that of `C[C@H]1[C@H](C)CC[C@]2(C(=O)n3ccnc3)CC[C@]3(C)C(=CC[C@@H]4[C@@]5(C)CCC(=O)C(C)(C)[C@@H]5CC[C@]43C)[C@H]12`, 15.2 µM.
Same read-out and setting: in the case of `C[C@H]1[C@H](C)CC[C@]2(C(=O)n3ccnc3)CC[C@]3(C)C(=CC(=O)[C@@H]4[C@@]5(C)CCC(=O)C(C)(C)[C@@H]5CC[C@]43C)[C@H]12` it was 11.7 µM.
As for `COC(=O)[C@]12CC[C@@H](C)[C@H](C)[C@H]1C1=CC(=O)[C@@H]3[C@@]4(C)C/C(=C/n5ccnc5C)C(=O)C(C)(C)[C@@H]4CC[C@@]3(C)[C@]1(C)CC2`, the IC50 in assay [1] came out at 2.1 µM; in assay [2] it was 3.5 µM; in assay [3] it was 8.3 µM; in assay [4], 14.4 µM; in assay [5] it was 18.7 µM; in assay [6], 5.7 µM. For the same molecule, the IC50 in assay [7] turned out to be 8.5 µM.
Molecule `Cc1nccn1/C=C1/C[C@]2(C)[C@H]3CC=C4[C@@H]5[C@@H](C)[C@H](C)CC[C@]5(C(=O)n5ccnc5C)CC[C@@]4(C)[C@]3(C)CC[C@H]2C(C)(C)C1=O` returned an IC50 in assay [1] of 11.3 µM.
The same measure, in the same setting: in the case of `C[C@H]1[C@H](C)CC[C@]2(C(=O)O)CC[C@]3(C)C(=CC[C@@H]4[C@@]5(C)CCC(=O)C(C)(C)[C@@H]5CC[C@]43C)[C@H]12` [URSONIC ACID] it was 24.5 µM.
In the case of `CC(=O)O[C@H]1CC[C@]2(C)[C@H]3C(=O)C=C4[C@@H]5[C@@H](C)[C@H](C)CC[C@]5(C(=O)n5ccnc5)CC[C@@]4(C)[C@]3(C)CC[C@H]2C1(C)C`, in assay [1], it took 13.9 µM to reach half-maximal inhibition (IC50).
As for `C[C@H]1[C@H](C)CC[C@]2(C(=O)O)CC[C@]3(C)C(=CC[C@@H]4[C@@]5(C)CC[C@H](O)C(C)(C)[C@@H]5CC[C@]43C)[C@H]12` [URSOLIC ACID], the IC50 came out at 12.6 µM in assay [1]; 12.3 µM in assay [2]; 10.4 µM in assay [3]; 14.9 µM in assay [4]; 11.4 µM in assay [5]; 20.8 µM in assay [6]. Half-maximal inhibition in assay [7] (IC50) required 15 µM.
Turning to `CC(=O)O[C@H]1CC[C@]2(C)[C@H]3C(=O)C=C4[C@@H]5[C@@H](C)[C@H](C)CC[C@]5(C(=O)n5ccnc5C)CC[C@@]4(C)[C@]3(C)CC[C@H]2C1(C)C`, in assay [1], the IC50 is 15.3 µM.
In turn, `CC(=O)O[C@H]1CC[C@]2(C)[C@H]3CC=C4[C@@H]5[C@@H](C)[C@H](C)CC[C@]5(C(=O)n5ccnc5)CC[C@@]4(C)[C@]3(C)CC[C@H]2C1(C)C` yielded an IC50 in assay [1] of 15.2 µM.
Molecule `C[C@H]1[C@H](C)CC[C@]2(C(=O)n3cnnc3)CC[C@]3(C)C(=CC[C@@H]4[C@@]5(C)CCC(=O)C(C)(C)[C@@H]5CC[C@]43C)[C@H]12` yielded an IC50 in assay [1] of 19.2 µM.
Same read-out and setting: in the case of `CC(=O)O[C@H]1CC[C@]2(C)[C@H]3C(=O)C=C4[C@@H]5[C@@H](C)[C@H](C)CC[C@]5(C(=O)O)CC[C@@]4(C)[C@]3(C)CC[C@H]2C1(C)C` [11-OXOURSOLIC ACID ACETATE] it was 33.5 µM.
For the molecule `C[C@H]1[C@H](C)CC[C@]2(C(=O)O)CC[C@]3(C)C(=CC(=O)[C@@H]4[C@@]5(C)CCC(=O)C(C)(C)[C@@H]5CC[C@]43C)[C@H]12`, in assay [1], the concentration for half-maximal inhibition (IC50) came to 54.9 µM.
Molecule `CC(=O)O[C@H]1CC[C@]2(C)[C@H]3CC=C4[C@@H]5[C@@H](C)[C@H](C)CC[C@]5(C(=O)n5cnnc5)CC[C@@]4(C)[C@]3(C)CC[C@H]2C1(C)C` gave an IC50 in assay [1] of 23.3 µM.
The same measure, in the same setting: in the case of `COC(=O)[C@]12CC[C@@H](C)[C@H](C)[C@H]1C1=CC[C@@H]3[C@@]4(C)C/C(=C/O)C(=O)C(C)(C)[C@@H]4CC[C@@]3(C)[C@]1(C)CC2` it was 7.2 µM; in that of `CC(=O)O[C@H]1CC[C@]2(C)[C@H]3CC=C4[C@@H]5[C@@H](C)[C@H](C)CC[C@]5(C(=O)n5ccnc5C)CC[C@@]4(C)[C@]3(C)CC[C@H]2C1(C)C`, 20.2 µM.
